Reference: ChEMBL document CHEMBL5512651, “Synthesis and biological evaluation of 4-imidazolidinone-containing compounds as potent inhibitors of the MDM2/p53 interaction” (Eur J Med Chem, 2024)
Active and inactive are the calls of the source. The calls are words filed in the database; no cut-off is given here.

What was measured:
MOLM-13 [1] = assay: Induction of apoptosis in human MOLM-13 cells assessed as late apoptotic cells at 0.3 uM incubated for 24 hrs by Annexin V-FITC/PI staining based flow cytometry (reference value: 0.457 %); assay type: functional
[2] = molecular target: Cellular tumor antigen p53 (Homo sapiens) (UniProt P04637); assay: Activation of p53 pathway in human HeLa cells assessed as increase in p53 level at 1 uM incubated for 24 hrs by Western blot analysis; assay type: cell-based
MOLM-13 [3] = assay: Induction of apoptosis in human MOLM-13 cells assessed as viable cells at 0.1 uM incubated for 24 hrs by Annexin V-FITC/PI staining based flow cytometry (reference value: 95.1 %); assay type: functional; conditions: read-out: Activity
MOLM-13 [4] = assay: Induction of apoptosis in human MOLM-13 cells assessed as increase in PARP cleavage at 0.15 to 0.6 uM incubated for 24 hrs by Western blot analysis; assay type: functional, cell-based; conditions: dose 0.15-0.6 µM
MOLM-13 [5] = assay: Induction of apoptosis in human MOLM-13 cells assessed as early apoptotic cells at 24.3 uM incubated for 24 hrs by Annexin V-FITC/PI staining based flow cytometry (reference value: 4.44 %); assay type: functional
MOLM-13 [6] = assay: Induction of apoptosis in human MOLM-13 cells assessed as early apoptotic cells at 0.1 uM incubated for 24 hrs by Annexin V-FITC/PI staining based flow cytometry (reference value: 4.44 %); assay type: functional
MOLM-13 [7] = assay: Induction of apoptosis in human MOLM-13 cells assessed as necrotic cells at 0.1 uM incubated for 24 hrs by Annexin V-FITC/PI staining based flow cytometry (reference value: 0.020 %); assay type: functional
[8] = Antiproliferative activity against HEK293 cells incubated for 4 days by CCK8 assay; assay type: toxicity, cell-based; conditions: human
MOLM-13 [9] = assay: Induction of apoptosis in human MOLM-13 cells assessed as viable cells at 0.9 uM incubated for 24 hrs by Annexin V-FITC/PI staining based flow cytometry (reference value: 95.1 %); assay type: functional; conditions: read-out: Activity
MOLM-13 [10] = assay: Induction of apoptosis in human MOLM-13 cells assessed as viable cells at 24.3 uM incubated for 24 hrs by Annexin V-FITC/PI staining based flow cytometry (reference value: 95.1 %); assay type: functional; conditions: read-out: Activity
MOLM-13 [11] = assay: Induction of apoptosis in human MOLM-13 cells assessed as early apoptotic cells at 0.9 uM incubated for 24 hrs by Annexin V-FITC/PI staining based flow cytometry (reference value: 4.44 %); assay type: functional
MOLM-13 [12] = assay: Induction of apoptosis in human MOLM-13 cells assessed as necrotic cells at 24.3 uM incubated for 24 hrs by Annexin V-FITC/PI staining based flow cytometry (reference value: 0.020 %); assay type: functional
[13] = molecular target: Cellular tumor antigen p53 (Homo sapiens) (UniProt P04637); assay: Activation of p53 pathway in human MOLM-13 cells assessed as increase in p21 mRNA level incubated for 24 hrs by qPCR analysis; assay type: cell-based; conditions: filed as activator, dose 0.038-0.6 µM
[14] = molecular target: Cellular tumor antigen p53 (Homo sapiens) (UniProt P04637); assay: Activation of p53 pathway in human HCT-116 cells assessed as increase in p21 level at 1 uM incubated for 24 hrs by Western blot analysis; assay type: cell-based; conditions: filed as activator
HeLa = assay: cells; conditions: Homo sapiens, 96 h
MOLM-13 [15] = assay: Induction of apoptosis in human MOLM-13 cells assessed as late apoptotic cells at 0.9 uM incubated for 24 hrs by Annexin V-FITC/PI staining based flow cytometry (reference value: 0.457 %); assay type: functional
MOLM-13 [16] = assay: Induction of apoptosis in human MOLM-13 cells assessed as early apoptotic cells at 8.1 uM incubated for 24 hrs by Annexin V-FITC/PI staining based flow cytometry (reference value: 4.44 %); assay type: functional
[17] = molecular target: Cellular tumor antigen p53 (Homo sapiens) (UniProt P04637); assay: Activation of p53 pathway in human A549 cells assessed as increase in p21 level at 1 uM incubated for 24 hrs by Western blot analysis; assay type: cell-based; conditions: filed as activator
[18] = molecular target: Cellular tumor antigen p53 (Homo sapiens) (UniProt P04637); assay: Activation of p53 pathway in human A549 cells assessed as increase in MDM2 level at 1 uM incubated for 24 hrs by Western blot analysis; assay type: cell-based; conditions: filed as activator
MOLM-13 [19] = assay: Induction of apoptosis in human MOLM-13 cells assessed as late apoptotic cells at 24.3 uM incubated for 24 hrs by Annexin V-FITC/PI staining based flow cytometry (reference value: 0.457 %); assay type: functional
[20] = molecular target: Cellular tumor antigen p53 (Homo sapiens) (UniProt P04637); assay: Activation of p53 pathway in human MOLM-13 cells assessed as increase in MDM2 mRNA level incubated for 24 hrs by qPCR analysis; assay type: cell-based; conditions: filed as activator, dose 0.038-0.6 µM
MOLM-13 [21] = assay: Induction of apoptosis in human MOLM-13 cells assessed as viable cells at 0.3 uM incubated for 24 hrs by Annexin V-FITC/PI staining based flow cytometry (reference value: 95.1 %); assay type: functional; conditions: read-out: Activity
[22] = molecular target: Cellular tumor antigen p53 (Homo sapiens) (UniProt P04637); assay: Activation of p53 pathway in human HCT-116 cells assessed as increase in p53 level at 1 uM incubated for 24 hrs by Western blot analysis; assay type: cell-based; conditions: filed as activator
[23] = molecular target: Cellular tumor antigen p53 (Homo sapiens) (UniProt P04637); assay: Activation of p53 pathway in human HeLa cells assessed as increase in p21 level at 1 uM incubated for 24 hrs by Western blot analysis; assay type: cell-based
A549 = assay: cells; conditions: Homo sapiens, A549, 96 h
MOLM-13 [24] = assay: Induction of apoptosis in human MOLM-13 cells assessed as increase in caspase-3 level at 0.15 to 0.6 uM incubated for 24 hrs by Western blot analysis; assay type: functional, cell-based; conditions: dose 0.15-0.6 µM
MOLM-13 [25] = assay: Induction of apoptosis in human MOLM-13 cells assessed as late apoptotic cells at 8.1 uM incubated for 24 hrs by Annexin V-FITC/PI staining based flow cytometry (reference value: 0.457 %); assay type: functional
[26] = molecular target: Cellular tumor antigen p53 (Homo sapiens) (UniProt P04637); assay: Activation of p53 pathway in human MOLM-13 cells assessed as increase in BAX mRNA level incubated for 24 hrs by qPCR analysis; assay type: cell-based; conditions: filed as activator, dose 0.038-0.6 µM
[27] = Selectivity index, ratio of IC50 for HEK293 cells to IC50 for human A549 cells; assay type: toxicity; conditions: HEK293 cells versus A549 cells, read-out: Ratio IC50
MOLM-13 [28] = assay: Induction of apoptosis in human MOLM-13 cells assessed as early apoptotic cells at 2.7 uM incubated for 24 hrs by Annexin V-FITC/PI staining based flow cytometry (reference value: 4.44 %); assay type: functional
[29] = molecular target: Cellular tumor antigen p53 (Homo sapiens) (UniProt P04637); assay: Activation of p53 pathway in human HeLa cells assessed as increase in MDM2 level at 1 uM incubated for 24 hrs by Western blot analysis; assay type: cell-based
MOLM-13 [30] = assay: Induction of apoptosis in human MOLM-13 cells assessed as necrotic cells at 2.7 uM incubated for 24 hrs by Annexin V-FITC/PI staining based flow cytometry (reference value: 0.020 %); assay type: functional
[31] = molecular target: Tumour suppressor protein p53/Mdm4 (Homo sapiens, UniProt O15151); assay: Inhibition of MDM4/p53 (unknown origin) interaction by fluorescence polarization assay; assay type: protein assay
[32] = molecular target: Tumour suppressor p53/oncoprotein Mdm2 (Homo sapiens, UniProt Q00987); assay: Inhibition of MDM2/p53 (unknown origin) interaction by fluorescence polarization assay; assay type: protein assay
[33] = molecular target: Cellular tumor antigen p53 (Homo sapiens) (UniProt P04637); assay: Activation of p53 pathway in human MOLM-13 cells assessed as increase in p53 level incubated for 24 hrs by Western blot analysis; assay type: cell-based; conditions: filed as activator, dose 0.038-0.6 µM
MOLM-13 [34] = assay: Induction of apoptosis in human MOLM-13 cells assessed as necrotic cells at 0.9 uM incubated for 24 hrs by Annexin V-FITC/PI staining based flow cytometry (reference value: 0.020 %); assay type: functional

Sequence of Cellular tumor antigen p53 (Homo sapiens) (P04637 whole entry, looked up): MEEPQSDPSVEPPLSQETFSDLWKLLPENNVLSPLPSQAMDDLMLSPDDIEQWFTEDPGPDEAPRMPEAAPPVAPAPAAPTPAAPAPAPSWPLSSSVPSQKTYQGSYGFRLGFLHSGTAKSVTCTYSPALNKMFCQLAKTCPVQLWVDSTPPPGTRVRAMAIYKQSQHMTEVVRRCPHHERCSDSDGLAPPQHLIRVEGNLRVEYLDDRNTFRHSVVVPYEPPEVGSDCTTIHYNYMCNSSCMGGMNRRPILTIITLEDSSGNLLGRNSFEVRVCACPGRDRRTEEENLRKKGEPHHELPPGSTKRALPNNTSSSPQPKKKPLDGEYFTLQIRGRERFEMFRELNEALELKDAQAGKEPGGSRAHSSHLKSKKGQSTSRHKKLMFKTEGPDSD
Sequence of Tumour suppressor protein p53/Mdm4 (P04637 whole entry): as the sequence (P04637 whole entry, looked up) above
Sequence of Tumour suppressor protein p53/Mdm4 (O15151 whole entry): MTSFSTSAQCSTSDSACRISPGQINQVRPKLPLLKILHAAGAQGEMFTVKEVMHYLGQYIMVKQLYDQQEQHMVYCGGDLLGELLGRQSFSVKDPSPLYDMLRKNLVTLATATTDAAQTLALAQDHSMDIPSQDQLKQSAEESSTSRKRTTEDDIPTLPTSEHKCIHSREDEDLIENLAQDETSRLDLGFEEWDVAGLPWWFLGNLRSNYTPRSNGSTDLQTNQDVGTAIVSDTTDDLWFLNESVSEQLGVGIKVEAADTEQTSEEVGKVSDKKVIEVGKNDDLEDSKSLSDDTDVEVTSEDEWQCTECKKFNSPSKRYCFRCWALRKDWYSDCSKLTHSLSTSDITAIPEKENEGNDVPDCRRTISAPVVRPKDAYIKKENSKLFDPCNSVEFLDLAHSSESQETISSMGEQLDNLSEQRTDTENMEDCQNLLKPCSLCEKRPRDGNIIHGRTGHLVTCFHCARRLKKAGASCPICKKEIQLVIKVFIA
Sequence of Tumour suppressor p53/oncoprotein Mdm2 (P04637 whole entry): as the sequence (P04637 whole entry, looked up) above
Sequence of Tumour suppressor p53/oncoprotein Mdm2 (Q00987 whole entry): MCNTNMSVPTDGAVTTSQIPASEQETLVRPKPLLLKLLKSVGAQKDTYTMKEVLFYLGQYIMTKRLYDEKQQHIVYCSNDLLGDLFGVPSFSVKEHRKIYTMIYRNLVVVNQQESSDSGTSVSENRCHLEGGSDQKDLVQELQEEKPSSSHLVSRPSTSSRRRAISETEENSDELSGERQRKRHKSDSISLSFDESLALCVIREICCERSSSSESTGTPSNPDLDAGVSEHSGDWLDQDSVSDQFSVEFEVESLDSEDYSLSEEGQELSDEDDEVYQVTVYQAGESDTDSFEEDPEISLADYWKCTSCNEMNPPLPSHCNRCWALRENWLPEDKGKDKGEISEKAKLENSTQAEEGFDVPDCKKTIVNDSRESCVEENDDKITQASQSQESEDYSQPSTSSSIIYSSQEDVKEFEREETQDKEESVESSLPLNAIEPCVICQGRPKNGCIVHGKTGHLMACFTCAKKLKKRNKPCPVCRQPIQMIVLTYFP

In the case of `COc1cc(C(=O)O)ccc1N1CN2[C@@H](CC(C)(C)C)[C@@]3(CNc4cc(Cl)ccc43)[C@@H](c3cccc(Cl)c3)[C@@H]2C1=O`, the Activity (MOLM-13 [1]) is reported as 0.998%, the Activity [2] is reported as “inactive” and the viability at 0.1 µM (MOLM-13 [3]) is reported as 83.8%. The Activity (MOLM-13 [4]) was “Active”, the Activity (MOLM-13 [5]) was 89.4% and the Activity (MOLM-13 [6]) was 15.2%. It also gave an Activity (MOLM-13 [7]) of 0.124%, an IC50 at 4 days [8] of 9.65 µM and a viability at 0.9 µM (MOLM-13 [9]) of 50%. It also gave a viability at 24.3 µM (MOLM-13 [10]) of 8.63%, an Activity (MOLM-13 [11]) of 48.8% and an Activity (MOLM-13 [12]) of 0.047%. The Activity [13] was “Dose-Dependent Effect”, the Activity [14] was “Active” and the IC50 (HeLa) was 12.3 µM. The Activity (MOLM-13 [15]) was 1.06%, the Activity (MOLM-13 [16]) was 71% and the Activity [17] was “Active”. The Activity [18] was “Active”, the Activity (MOLM-13 [19]) was 1.96% and the Activity [20] was “Dose-Dependent Effect”. The viability at 0.3 µM (MOLM-13 [21]) was 74.5%, the Activity [22] was “Active” and the Activity [23] was “inactive”. The IC50 (A549) was 0.184 µM, the Activity (MOLM-13 [24]) was “Active” and the Activity (MOLM-13 [25]) was 1.41%. For the same compound, the Activity [26] was “Dose-Dependent Effect”, the selectivity ratio [27] was 52 and the Activity (MOLM-13 [28]) was 68.6%. For the same compound, the Activity [29] was “inactive”, the Activity (MOLM-13 [30]) was 0.125% and the Ki [31] was over 27 µM. The Ki [32] was 0.0004 µM, the Activity [33] was “Dose-Dependent Effect” and the Activity (MOLM-13 [34]) was 0.119%.
